Measured values published in ChEMBL document CHEMBL5126512, “Current status of carbazole hybrids as anticancer agents” (Eur J Med Chem, 2022).
Each block holds one molecule with its values, some of them ahead of it.

Key:
MCF7 [1] = experiment: Cytotoxicity against human MCF7 cells assessed as cell growth inhibition measured after 48 hrs by MTT assay; type: functional, cell-based; settings: MCF7, 48 h
MCF7 [2] = experiment: Potency index, ratio of Doxorubicin IC50 to compound IC50 for cytotoxicity against human MCF7 cells by MTT assay; type: functional
MDA-MB-231 [3] = experiment: Antiproliferative activity against human MDA-MB-231 cells assessed as cell growth inhibition measured after 24 hrs by MTT assay; type: functional, cell-based; settings: MDA-MB-231, 24 h
B16-F10 = experiment: Antiproliferative activity against mouse B16-F10 cells assessed as cell growth inhibition measured after 24 hrs by MTT assay; type: functional, cell-based; settings: B16-F10, 24 h
DU-145 [4] = experiment: Antiproliferative activity against human DU-145 cells assessed as cell growth inhibition measured after 24 hrs by MTT assay; type: functional, cell-based; settings: DU-145, 24 h
SK-OV-3 = experiment: Antiproliferative activity against human SK-OV-3 cells assessed as cell growth inhibition measured after 24 hrs by MTT assay; type: functional, cell-based; settings: SK-OV-3, 24 h
MDA-MB-231 [5] = experiment: Antiproliferative activity against human MDA-MB-231 cells assessed as cell growth inhibition measured after 72 hrs by MTT assay; type: functional, cell-based; settings: MDA-MB-231, 72 h
MCF7 [6] = experiment: Antiproliferative activity against human MCF7 cells assessed as cell growth inhibition measured after 72 hrs by MTT assay; type: functional, cell-based; settings: MCF7, 72 h
A549 [7] = experiment: Anticancer activity against human A549 cells assessed as cell growth inhibition measured after 48 hrs by MTT assay; type: functional, cell-based; settings: A549, 48 h
MCF7 [8] = experiment: Anticancer activity against human MCF7 cells assessed as cell growth inhibition measured after 48 hrs by MTT assay; type: functional, cell-based; settings: MCF7, 48 h
Jurkat = experiment: Antiproliferative activity against human Jurkat cells assessed as cell growth inhibition measured after 48 hrs by MTT assay; type: functional, cell-based
MDA-MB-231 [9] = experiment: Antiproliferative activity against human MDA-MB-231 cells assessed as cell growth inhibition measured after 48 hrs by MTT assay; type: functional, cell-based; settings: MDA-MB-231, 48 h
HT-29 = experiment: Antiproliferative activity against human HT-29 cells assessed as cell growth inhibition measured after 48 hrs by MTT assay; type: functional, cell-based; settings: HT-29, 48 h
HCT-116 = experiment: Antiproliferative activity against human HCT-116 cells assessed as cell growth inhibition measured after 48 hrs by MTT assay; type: functional, cell-based; settings: HCT-116, 48 h
SW837 = experiment: Antiproliferative activity against human SW837 cells assessed as cell growth inhibition measured after 48 hrs by MTT assay; type: functional, cell-based; settings: SW837, 48 h
[10] = Cytotoxicity activity against African green monkey vero cells assessed as cell growth inhibition measured after 72 hrs by MTT assay; type: toxicity, cell-based, Chlorocebus sabaeus
[11] = Cytotoxicity activity against human PBMC cells assessed as cell growth inhibition measured after 72 hrs by MTT assay; type: toxicity, cell-based
K562 = experiment: Cytotoxicity activity against human K562 cells assessed as cell growth inhibition measured after 72 hrs by MTT assay; type: functional, cell-based; settings: K562, 72 h
MDA-MB-231 [12] = experiment: Cytotoxicity against human MDA-MB-231 cells assessed as cell growth inhibition measured after 48 hrs by MTT assay; type: functional, cell-based; settings: MDA-MB-231, 48 h
HeLa [13] = experiment: Cytotoxicity against human HeLa cells assessed as cell growth inhibition measured after 48 hrs by MTT assay; type: functional, cell-based
[14] = Cytotoxicity against human HUVEC cells assessed as cell growth inhibition measured after 48 hrs by MTT assay; type: toxicity, cell-based
[15] = Cytotoxicity against human MRC5 cells assessed as cell growth inhibition measured after 72 by Cell-Titre Glo luminescent cell viability assay; type: toxicity, cell-based
ASPC1 = experiment: Anticancer activity against human ASPC1 cells assessed as cell growth inhibition measured after 72 hrs by Cell-Titre Glo luminescent cell viability assay; type: functional, cell-based; settings: ASPC1, 72 h
[16] = Cytotoxicity against human ARPE-19 cells assessed as cell growth inhibition measured after 72 by Cell-Titre Glo luminescent cell viability assay; type: toxicity, cell-based
SW1990 = experiment: Anticancer activity against human SW1990 cells assessed as cell growth inhibition measured after 72 hrs by Cell-Titre Glo luminescent cell viability assay; type: functional, cell-based; settings: SW1990, 72 h
A498 = experiment: Antiproliferative activity against human A498 cells assessed as cell growth inhibition measured after 72 hrs by SRB assay; type: functional, cell-based; settings: A498, 72 h
[17] = Cytotoxicity against human NHDF cells assessed as cell growth inhibition measured after 72 hrs by SRB assay; type: toxicity, cell-based
A549 [18] = experiment: Antiproliferative activity against human A549 cells assessed as cell growth inhibition measured after 72 hrs by SRB assay; type: functional, cell-based; settings: A549, 72 h
Hep 3B2 = experiment: Cytotoxicity against human Hep3B cells assessed as cell growth inhibition measured after 48 hrs by MTT assay; type: functional, cell-based
SMMC-7721 = experiment: Cytotoxicity against human SMMC-7721 cells assessed as cell growth inhibition measured after 48 hrs by MTT assay; type: functional, cell-based; settings: SMMC-7721, 48 h
HepG2 [19] = experiment: Antitumor activity against human HepG2 xenografted in BALB/c nude mouse assessed as tumor growth inhibition at 50 mg/kg, iv administered every 2 days and measured upto 30 days relative to control; type: functional; settings: read-out: TGI
HeLa [20] = experiment: Antiproliferative activity against human HeLa cells assessed as cell growth inhibition measured after 48 hrs by MTT assay; type: functional, cell-based
HepG2 [21] = experiment: Antiproliferative activity against human HepG2 cells assessed as cell growth inhibition measured after 48 hrs by MTT assay; type: functional, cell-based; settings: HepG2, 48 h
OVCAR-3 = experiment: Antiproliferative activity against human OVCAR-3 cells assessed as cell growth inhibition measured after 48 hrs by MTT assay; type: functional, cell-based; settings: OVCAR-3, 48 h
PA-1 = experiment: Antiproliferative activity against human PA-1 cells assessed as cell growth inhibition measured after 48 hrs by MTT assay; type: functional, cell-based; settings: PA-1, 48 h
DU-145 [22] = experiment: Antiproliferative activity against human DU-145 cells assessed as cell growth inhibition measured after 48 hrs by MTT assay; type: functional, cell-based; settings: DU-145, 48 h

SMILES: N#CC1=C(N)Oc2ccc3c([nH]c4ccccc43)c2C12C(=O)N(Cc1cn(Cc3ccc([N+](=O)[O-])cc3)nn1)c1ccccc12 (stereo not drawn)
IC50 (MCF7 [1]): 2.13 µM
Ratio IC50 (MCF7 [2]): 2.1

SMILES: O=C(Cn1c2ccccc2c2c3oc(=O)cc(COC(=O)CCCc4ccc(N(CCCl)CCCl)cc4)c3ccc21)NCCC[P+](c1ccccc1)(c1ccccc1)c1ccccc1
IC50 (Jurkat): 20 µM

SMILES: Cc1c2ccncc2c(C)c2c1[nH]c1c(S(=O)(=O)O)cc(Br)cc12
IC50 at 72 h [10]: > 100 µM
IC50 at 72 h [11]: > 100 µM
IC50 (K562): 35 µM

SMILES: CCCCCn1cc(CN2C(=O)C3(C(C#N)=C(N)Oc4ccc5c([nH]c6ccccc65)c43)c3ccccc32)nn1 (stereo not drawn)
IC50 (MCF7 [1]): 4.8 µM
IC50 (MDA-MB-231 [12]): 4.8 µM
IC50 (HeLa [13]): 4.8 µM
IC50 at 48 h [14]: 4.8 µM

SMILES: Cc1c2ccncc2c(C(=O)NCCN(C)C)c2c3cc(CO)ccc3n(C)c12
IC50 (A498): 0.78 µM
IC50 at 72 h [17]: 7.33 µM
IC50 (A549 [18]): 0.65 µM

SMILES: COc1cccc2c1C(=O)c1c(O)c3c(c(O)c1C2=O)C[C@@](O)(C(=O)CO)C[C@@H]3O[C@H]1C[C@H](N)[C@H](O)[C@H](C)O1 [DOXORUBICIN]
IC50 (Hep 3B2): 1.02 µM
IC50 (SMMC-7721): 1.02 µM

SMILES: COc1ccc(/C=C\c2cc(OC)c(OC)c(OC)c2)cc1OP(=O)(O)O [FOSBRETABULIN]
inhibition in vivo at 50 mg/kg (HepG2 [19]): 48.3%

Continued, in another order:

IC50 (MDA-MB-231 [3]): 5.1 µM
IC50 (B16-F10): 5.1 µM
IC50 (DU-145 [4]): 5.1 µM
IC50 (SK-OV-3): 5.1 µM
SMILES: CNC1=C([N+](=O)[O-])C(c2cc(OC)c(OC)c(OC)c2)c2ccc3[nH]c4ccccc4c3c2O1 (stereo not drawn)

IC50 (MDA-MB-231 [5]): 4.4 µM
IC50 (MCF7 [6]): 4.4 µM
SMILES: C[N+](C)(C)CCN1CCN(CCCCCCn2c3ccccc3c3cc(Cl)ccc32)CC1

IC50 (A549 [7]): 20 µM
IC50 (MCF7 [8]): 21 µM
SMILES: O=C1c2[nH]c3ccc(Cl)cc3c2CC[C@@]12[C@@H](c1ccc(Cl)cc1)C1CSCN1C21c2ccccc2-c2nc3ccccc3nc21 (stereo partly drawn)

IC50 (MDA-MB-231 [9]): 16 µM
IC50 (HT-29): 18 µM
IC50 (HCT-116): 18 µM
IC50 (SW837): 16 µM
SMILES: Oc1cc2[nH]c3ccccc3c2cc1CN1CCCCC1

IC50 (ASPC1): 3.42 µM
IC50 (SW1990): 22.4 µM
SMILES: CCCCn1c2ccccc2c2cc(/C=N/NC(=O)c3ccncc3)ccc21
IC50 [15]: 64.8 µM
IC50 [16]: 65.6 µM

IC50 (HeLa [20]): 0.2 µM
IC50 (HepG2 [21]): 0.2 µM
IC50 (OVCAR-3): 0.2 µM
IC50 (DU-145 [22]): 0.2 µM
IC50 (HCT-116): 0.2 µM
SMILES: COc1ccc2[nH]c3c4c(c(C)cc3c2c1)OC(C)(C)C=C4 [KOENIMBINE]
IC50 (PA-1): 0.2 µM
